Test results: patent US9656971B2, “COMT inhibitors” (Hoffmann-La Roche Inc., priority 2012, dated 2017)
Counter-ions that a name gives are not always drawn. Like-named read-outs stand apart in the source and are kept apart here.

Biological target: T1, Rec. human COMT (Homo sapiens, UniProt P21964)
T1 sequence (P21964 1-271): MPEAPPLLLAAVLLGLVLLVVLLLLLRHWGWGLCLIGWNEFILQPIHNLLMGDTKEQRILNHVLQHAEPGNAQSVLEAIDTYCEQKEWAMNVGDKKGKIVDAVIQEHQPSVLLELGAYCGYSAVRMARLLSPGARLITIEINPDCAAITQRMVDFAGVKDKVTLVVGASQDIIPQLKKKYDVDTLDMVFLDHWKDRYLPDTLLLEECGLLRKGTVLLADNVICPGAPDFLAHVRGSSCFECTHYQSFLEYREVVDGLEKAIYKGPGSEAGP
Test: COMT-Fluorescence Assay
Assay type: biochemical
Details: rec. human COMT 25 nM, 4-Nitrocatechol-Alexa488 200 nM, SAM 500 nM
Method: This intramolecular interaction is disturbed if the 4-Nitrocatechol is methylated. […] This increase of fluorescence intensity can be followed in a kinetic measurement. The slope in the linear range of the kinetic is calculated. An inhibitor compound decreases the slope.
Signal [rfu/min]=(rfu(end-point)−rfu(startpoint))/incubation_time_#2

[1] = COMT-fluorescence assay, read-out: IC50

SMILES | IC50 [1] [nM] | IC50 (IC50, COMT-fluorescence assay) [nM]
COC(=O)C(C)c1ccc(-c2ccccc2)c(-c2cc(O)c3nc[nH]c(=O)c3c2)c1 (racemic) [Example 32, (rac.) Methyl 2-(2-(8-hydroxy-4-oxo-3,4-dihydroquinazolin-6-yl)biphenyl-4-yl)propanoate] | 2000 | 
O=c1[nH]cnc2c(O)ccc(Br)c12 [Example 1, 5-Bromo-8-hydroxyquinazolin-4(3H)-one] | 500 | 
O=C(c1cc(O)c2nc[nH]c(=O)c2c1)N1CCOCC1 [Example 3, 8-Hydroxy-6-(morpholine-4-carbonyl)quinazolin-4(3H)-one] | 4210 | 
O=C(NCC(F)(F)F)c1cc(O)c2nc[nH]c(=O)c2c1 [Example 5, 8-Hydroxy-4-oxo-N-(2,2,2-trifluoroethyl)-3,4-dihydroquinazoline-6-carboxamide] | 660 | 
O=c1[nH]cnc2c(O)cc(Cc3ccccc3)cc12 [Example 9, 6-Benzyl-8-hydroxyquinazolin-4(3H)-one] | 1330 | 
CCc1cc(O)c2nc[nH]c(=O)c2c1 [Example 10, 6-Ethyl-8-hydroxyquinazolin-4(3H)-one 2,2,2-trifluoroacetate] |  | 1090
O=c1[nH]cnc2c(O)cc(Cc3ccccc3F)cc12 [Example 11, 6-(2-Fluorobenzyl)-8-hydroxyquinazolin-4(3H)-one] | 1250 | 
Cc1cccc(Cc2cc(O)c3nc[nH]c(=O)c3c2)c1 [Example 12, 8-Hydroxy-6-(3-methylbenzyl)quinazolin-4(3H)-one] | 1470 | 
CC(C)c1cc(O)c2nc[nH]c(=O)c2c1 [Example 13, 8-Hydroxy-6-isopropylquinazolin-4(3H)-one] | 1000 | 
COc1ccccc1Cc1cc(O)c2nc[nH]c(=O)c2c1 [Example 14, 8-Hydroxy-6-(2-methoxybenzyl)quinazolin-4(3H)-one] | 4900 | 
COc1cccc(Cc2cc(O)c3nc[nH]c(=O)c3c2)c1 [Example 15, 8-Hydroxy-6-(3-methoxybenzyl)quinazolin-4(3H)-one] | 1200 | 
O=c1[nH]cnc2c(O)cc(CCc3ccccc3)cc12 [Example 16, 8-Hydroxy-6-phenethylquinazolin-4(3H)-one] | 560 | 
CC(C)Cc1cc(O)c2nc[nH]c(=O)c2c1 [Example 17, 8-Hydroxy-6-isobutylquinazolin-4(3H)-one] | 1100 | 
O=c1[nH]cnc2c(O)cc(C3CCCC3)cc12 [Example 18, 6-Cyclopentyl-8-hydroxyquinazolin-4(3H)-one] | 900 | 
CC(C)Oc1cccc(-c2cc(O)c3nc[nH]c(=O)c3c2)c1 [Example 24, 8-Hydroxy-6-(3-isopropoxyphenyl)quinazolin-4(3H)-one] |  | 10
O=c1[nH]cnc2c(O)cc(-c3ccc4c(c3)OCC4)cc12 [Example 25, 6-(2,3-Dihydrobenzofuran-6-yl)-8-hydroxyquinazolin-4(3H)-one] |  | 20
O=c1[nH]cnc2c(O)cc(-c3cc(F)c(F)c(F)c3)cc12 [Example 28, 8-Hydroxy-6-(3,4,5-trifluorophenyl)quinazolin-4(3H)-one] |  | 40
CN(C)c1ccc(/N=N/c2ccccc2)c(-c2cc(O)c3nc[nH]c(=O)c3c2)c1 [Example 29, (E)-6-(5-(Dimethylamino)-2-(phenyldiazenyl)phenyl)-8-hydroxyquinazolin-4(3H)-one] | 2800 | 
Cc1ccc(-c2ccc(C(F)(F)F)cc2)c(-c2cc(O)c3nc[nH]c(=O)c3c2)c1 [Example 30, 8-Hydroxy-6-(4-methyl-4′-(trifluoromethyl)biphenyl-2-yl)quinazolin-4(3H)-one] | 1400 | 
O=c1[nH]cnc2c(O)cc(-c3c(F)c(F)c(F)c(F)c3F)cc12 [Example 33, 8-Hydroxy-6-(perfluorophenyl)quinazolin-4(3H)-one] |  | 20
COc1ccc(C(C)(C)C)cc1-c1cc(O)c2nc[nH]c(=O)c2c1 [Example 35, 6-(5-tert-Butyl-2-methoxyphenyl)-8-hydroxyquinazolin-4(3H)-one] | 1300 | 
O=c1[nH]cnc2c(O)cc(-c3cc(Cl)ccc3Cl)cc12 [Example 37, 6-(2,5-Dichlorophenyl)-8-hydroxyquinazolin-4(3H)-one] |  | 30
CN1CCc2cc(-c3cc(O)c4nc[nH]c(=O)c4c3)ccc21 [Example 40, 8-Hydroxy-6-(1-methylindolin-5-yl)quinazolin-4(3H)-one 1:1 salt with trifluoroacetate] |  | 10
O=c1[nH]cnc2c(O)ccc(C(F)(F)F)c12 [Example 42, 8-Hydroxy-5-(trifluoromethyl)quinazolin-4(3H)-one] | 1030 | 

Results, then the compound that gave them:

IC50 [1] [nM] | IC50 (IC50, COMT-fluorescence assay) [nM] | SMILES
100 |  | O=c1[nH]cnc2c(O)cc(C3CCc4ccccc4C3)cc12 (racemic) [Example 8, (rac.) 8-Hydroxy-6-(1,2,3,4-tetrahydronaphthalen-2-yl)quinazolin-4(3H)-one]
30 |  | COC(=O)c1cc(O)c2nc[nH]c(=O)c2c1 [Example 2, Methyl 8-hydroxy-4-oxo-3,4-dihydroquinazoline-6-carboxylate]
170 |  | O=C(NCC(F)(F)C(F)(F)F)c1cc(O)c2nc[nH]c(=O)c2c1 [Example 4, 8-Hydroxy-4-oxo-N-(2,2,3,3,3-pentafluoropropyl)-3,4-dihydroquinazoline-6-carboxamide]
20 |  | CCOC(=O)c1cc(O)c2nc[nH]c(=O)c2c1 [Example 6, Ethyl 8-hydroxy-4-oxo-3,4-dihydroquinazoline-6-carboxylate]
10 |  | O=c1[nH]cnc2c(O)cc(C3=Cc4ccccc4CC3)cc12 [Example 7, 6-(3,4-Dihydro-naphthalen-2-yl)-8-hydroxy-3H-quinazolin-4-one]
80 |  | Cc1ccc(C)c2c1C=C(c1cc(O)c3nc[nH]c(=O)c3c1)CC2 [Example 19, 6-(5,8-dimethyl-3,4-dihydro-naphthalen-2-yl)-8-hydroxy-3H-quinazolin-4-one]
90 |  | O=c1[nH]cnc2c(O)cc(/C=C/c3ccccc3)cc12 [Example 20, (E)-8-Hydroxy-6-styrylquinazolin-4(3H)-one]
100 |  | Cc1ccc(/C=C/c2cc(O)c3nc[nH]c(=O)c3c2)cc1 [Example 21, (E)-8-Hydroxy-6-(4-methylstyryl)quinazolin-4(3H)-one]
200 |  | O=c1[nH]cnc2c(O)cc(CCCc3ccccc3)cc12 [Example 22]
10 |  | O=c1[nH]cnc2c(O)cc(C#Cc3ccccc3)cc12 [Example 23, 8-Hydroxy-6-(phenylethynyl)quinazolin-4(3H)-one]
190 |  | COc1ccc(C(F)(F)F)cc1-c1cc(O)c2nc[nH]c(=O)c2c1 [Example 26, 8-Hydroxy-6-(2-methoxy-5-(trifluoromethyl)phenyl)quinazolin-4(3H)-one]
40 |  | N#Cc1ccc(Cl)c(-c2cc(O)c3nc[nH]c(=O)c3c2)c1 [Example 27, 4-Chloro-3-(8-hydroxy-4-oxo-3,4-dihydroquinazolin-6-yl)benzonitrile]
20 |  | O=c1[nH]cnc2c(O)cc(-c3ccc(F)c(F)c3F)cc12 [Example 31, 8-Hydroxy-6-(2,3,4-trifluoro-phenyl)-3H-quinazolin-4-one]
170 |  | O=c1[nH]cnc2c(O)c(Br)c(-c3ccc(F)cc3)c(Br)c12 [Example 34, 5,7-Dibromo-6-(4-fluorophenyl)-8-hydroxyquinazolin-4(3H)-one]
80 |  | COc1ccc(C)cc1-c1cc(O)c2nc[nH]c(=O)c2c1 [Example 36, 8-Hydroxy-6-(2-methoxy-5-methylphenyl)quinazolin-4(3H)-one]
30 |  | O=c1[nH]cnc2c(O)c(F)c(-c3ccccc3)c(F)c12 [Example 38, 5,7-Difluoro-8-hydroxy-6-phenylquinazolin-4(3H)-one]
20 |  | O=c1[nH]cnc2c(O)cc(-c3cccc(CN4CCOCC4)c3)cc12 [Example 39, 8-Hydroxy-6-(3-(morpholinomethyl)phenyl)quinazolin-4(3H)-one 1:1 salt with trifluoroacetate]
160 |  | O=c1[nH]cnc2c(O)cc(Br)c(C(F)(F)F)c12 [Example 41, 6-Bromo-8-hydroxy-5-(trifluoromethyl)quinazolin-4(3H)-one]
40 |  | O=c1[nH]cnc2c(O)cc(-c3ccc(F)cc3)c(C(F)(F)F)c12 [Example 43, 6-(4-Fluorophenyl)-8-hydroxy-5-(trifluoromethyl)quinazolin-4(3H)-one]
110 |  | O=c1[nH]cnc2c(O)cc(Br)c([N+](=O)[O-])c12 [Example 44, 6-Bromo-8-hydroxy-5-nitro-3H-quinazolin-4-one]
30 |  | COCCn1nccc1-c1cc(O)c2nc[nH]c(=O)c2c1 [Example 45, 8-Hydroxy-6-(1-(2-methoxyethyl)-1H-pyrazol-5-yl)quinazolin-4(3H)-one]
10 |  | COCc1nc(C)sc1-c1cc(O)c2nc[nH]c(=O)c2c1 [Example 46, 8-Hydroxy-6-(4-(methoxymethyl)-2-methylthiazol-5-yl)quinazolin-4(3H)-one]
60 |  | COCCn1cc(-c2cc(O)c3nc[nH]c(=O)c3c2)cn1 [Example 47, 8-Hydroxy-6-(1-(2-methoxyethyl)-1H-pyrazol-4-yl)quinazolin-4(3H)-one]
50 |  | CS(=O)(=O)c1ccc(Cl)c(-c2cc(O)c3nc[nH]c(=O)c3c2)c1 [Example 48, 6-(2-Chloro-5-methanesulfonyl-phenyl)-8-hydroxy-3H-quinazolin-4-one]
20 |  | O=c1[nH]cnc2c(O)cc(-c3ccc(F)cc3)c(-c3ccccc3)c12 [Example 49, 6-(4-Fluorophenyl)-8-hydroxy-5-phenylquinazolin-4(3H)-one]
